This passage reports Efficacy, Ki and EC50 results from ChEMBL document CHEMBL1914371, “Development of a bivalent dopamine D₂ receptor agonist” (J Med Chem, 2011).

Assay [1] deals with T1, D(2) dopamine receptor (Homo sapiens, UniProt P14416). The assay is described as follows: Partial agonist activity at DRD2 Long receptor expressed in CHO cells assessed as inhibition of forskolin-stimulated cAMP accumulation by bioluminescence assay relative to quinpirole. Format: functional, cell-based.
In assay [2] the target is D(1A) dopamine receptor (Sus scrofa, UniProt P50130). The assay is described as follows: Displacement of [3H]SCH 23390 from pig dopamine D1 receptor in striatal membrane. The format is cell membranes, Striatum. A general note: Loss of bound radioactivity is the signal in a displacement assay; it reports binding, not function.
Assay [3] deals with T1, D(2) dopamine receptor. The assay is described as follows: Displacement of [3H]spiperone from human DRD2 short receptor expressed in chinese hamster CHO cells by radioligand binding assay. Format: cell-based.
Assay [4] addresses T1, D(2) dopamine receptor. In words: Displacement of [3H]spiperone from human DRD2 Long receptor expressed in chinese hamster CHO cells by radioligand binding assay. Format: cell-based.
Assay [5] addresses D(3) dopamine receptor (Homo sapiens, UniProt P35462). The assay is described as follows: Displacement of [3H]spiperone from human dopamine D3 receptor expressed in chinese hamster CHO cells by radioligand binding assay. The format is cell-based.
The target of assay [6] is T2, D(4) dopamine receptor (Homo sapiens, UniProt P21917).
T2 sequence (P21917 whole entry): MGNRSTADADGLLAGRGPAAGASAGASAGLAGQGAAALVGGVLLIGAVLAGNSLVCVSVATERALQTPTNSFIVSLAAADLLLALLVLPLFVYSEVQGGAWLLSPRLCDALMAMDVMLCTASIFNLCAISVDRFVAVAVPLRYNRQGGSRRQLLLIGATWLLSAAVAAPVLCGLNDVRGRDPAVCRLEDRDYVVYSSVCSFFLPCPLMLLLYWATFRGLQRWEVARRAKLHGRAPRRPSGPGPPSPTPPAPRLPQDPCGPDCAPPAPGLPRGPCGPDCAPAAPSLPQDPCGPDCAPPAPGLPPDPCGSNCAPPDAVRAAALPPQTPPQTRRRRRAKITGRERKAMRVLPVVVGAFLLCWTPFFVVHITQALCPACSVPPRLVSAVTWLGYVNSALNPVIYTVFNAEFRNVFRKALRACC
In words: Displacement of [3H]spiperone from human dopamine D4.4 receptor expressed in chinese hamster CHO cells by radioligand binding assay. Format: cell-based.

The target in assay [7] is T1, D(2) dopamine receptor. The assay is described as follows: Partial agonist activity at DRD2 Long receptor expressed in CHO cells assessed as inhibition of forskolin-stimulated cAMP accumulation by bioluminescence assay. The format is functional, cell-based. (In general: Changes in cAMP serve as a functional read-out for many G protein-coupled receptors.)
The target in assay [8] is T1, D(2) dopamine receptor. The assay is described as follows: Agonist activity at DRD2 Long receptor expressed in CHO cells assessed as inhibition of forskolin-stimulated cAMP accumulation by bioluminescence assay. Format: functional, cell-based.
Assay [9] deals with T1, D(2) dopamine receptor. The assay is described as follows: Antagonist activity at DRD2 Long receptor expressed in CHO cells assessed as […] of forskolin-stimulated cAMP accumulation by bioluminescence assay relative to quinpirole. The format is functional, cell-based.

In general, Ki refers to a measure of affinity in units of concentration, obtained from inhibition or displacement. By EC50 is commonly meant the concentration at which the effect is half-maximal.

T1 sequence (P14416 whole entry): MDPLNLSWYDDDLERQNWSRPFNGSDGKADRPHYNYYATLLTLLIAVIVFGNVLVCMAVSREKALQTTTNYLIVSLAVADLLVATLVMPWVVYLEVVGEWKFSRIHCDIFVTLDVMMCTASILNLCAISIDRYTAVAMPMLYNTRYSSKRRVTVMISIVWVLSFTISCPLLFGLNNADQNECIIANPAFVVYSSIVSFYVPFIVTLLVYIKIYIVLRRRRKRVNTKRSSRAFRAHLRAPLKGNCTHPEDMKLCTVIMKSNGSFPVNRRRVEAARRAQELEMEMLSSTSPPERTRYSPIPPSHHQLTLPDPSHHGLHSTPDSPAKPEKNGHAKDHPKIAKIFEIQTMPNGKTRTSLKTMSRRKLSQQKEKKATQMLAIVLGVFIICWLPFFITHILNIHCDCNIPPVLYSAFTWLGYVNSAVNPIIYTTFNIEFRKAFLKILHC
Sequence of D(1A) dopamine receptor (P50130 whole entry): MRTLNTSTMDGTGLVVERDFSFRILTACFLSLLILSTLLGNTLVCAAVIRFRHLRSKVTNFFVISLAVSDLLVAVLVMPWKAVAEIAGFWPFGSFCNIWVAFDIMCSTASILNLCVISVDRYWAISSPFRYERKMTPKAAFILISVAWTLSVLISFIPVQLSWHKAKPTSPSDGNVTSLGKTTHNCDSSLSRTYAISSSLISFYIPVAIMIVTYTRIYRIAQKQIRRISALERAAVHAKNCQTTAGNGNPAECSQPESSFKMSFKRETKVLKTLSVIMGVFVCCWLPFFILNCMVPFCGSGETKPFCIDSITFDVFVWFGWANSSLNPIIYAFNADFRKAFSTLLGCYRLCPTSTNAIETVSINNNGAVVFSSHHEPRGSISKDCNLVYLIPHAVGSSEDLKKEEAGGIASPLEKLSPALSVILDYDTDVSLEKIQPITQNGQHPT
Sequence of D(3) dopamine receptor (P35462 whole entry): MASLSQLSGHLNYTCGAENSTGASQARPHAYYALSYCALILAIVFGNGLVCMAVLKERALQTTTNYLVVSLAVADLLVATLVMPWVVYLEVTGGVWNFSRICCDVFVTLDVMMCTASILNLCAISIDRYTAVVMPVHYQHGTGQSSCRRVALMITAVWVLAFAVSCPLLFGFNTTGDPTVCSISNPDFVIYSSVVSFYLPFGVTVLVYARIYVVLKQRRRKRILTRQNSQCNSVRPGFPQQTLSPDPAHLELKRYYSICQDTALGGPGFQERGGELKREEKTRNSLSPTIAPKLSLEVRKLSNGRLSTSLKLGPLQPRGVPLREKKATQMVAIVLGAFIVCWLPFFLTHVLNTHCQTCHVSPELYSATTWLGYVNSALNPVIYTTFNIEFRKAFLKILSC

For the compound `CCCN(CCCCNC(=O)c1ccc(OCCCc2cn(CCCCCCCCn3cc(CCCOc4ccc(CN5CCN(c6ccccc6OC)CC5)cc4OC)nn3)nn2)c(OC)c1)C1Cc2ccccc2C1`, the Efficacy in assay [1] came to 13%. In addition, the Ki came out at 0.33 µM in [2]; 0.0088 µM in assay [3]; 0.014 µM in assay [4]; 0.0012 µM in assay [5]; 0.022 µM in assay [6]. Besides, in assay [7], the EC50 turned out to be 0.38 µM.

With `CCCCn1cc(CCCOc2ccc(C(=O)NCCCCN(CCC)C3Cc4ccccc4C3)cc2OC)nn1`, in assay [8], the half-maximal effective concentration (EC50) came out at 0.013 µM. The Ki in assay [2] was determined as 6 µM; in [3] it was 0.0041 µM; in assay [4], 0.012 µM; in [5], 0.00071 µM; in assay [6], 0.042 µM.

Turning to `CCCCn1cc(CCCOc2ccc(C(=O)NCCCCN3CCN(c4ccccc4OC)CC3)cc2OC)nn1`, the Ki stood at 1.2 µM in assay [2]; 0.012 µM in assay [3]; 0.017 µM in [4]; 0.002 µM in assay [5]; 0.084 µM in assay [6].

With `CCCN(CCCCNC(=O)c1ccc(OCCCc2cn(CCCCCCCCn3cc(CCCOc4ccc(C(=O)NCCCCN(CCC)C5Cc6ccccc6C5)cc4OC)nn3)nn2)c(OC)c1)C1Cc2ccccc2C1`, the EC50 in assay [8] was 0.44 µM. Also, the Ki in assay [2] amounted to 0.51 µM; in assay [3], 0.016 µM; in assay [4], 0.016 µM; in [5], 0.0018 µM; in assay [6], 0.034 µM.

As to `CCCN(CCCCNC(=O)c1ccc(OCCCc2cn(CCCCCCCCn3cc(CCCOc4ccc(C(=O)NCCCCN5CCN(c6ccccc6OC)CC5)cc4OC)nn3)nn2)c(OC)c1)C1Cc2ccccc2C1`, the Ki in [2] came to 0.2 µM; in assay [3], 0.017 µM; in assay [4] it was 0.025 µM; in assay [5], 0.002 µM; in assay [6], 0.04 µM. Also, in [9], the Efficacy is under 3%.

In the case of `COc1cc(C(=O)NCCCCN2CCN(c3ccccc3OC)CC2)ccc1OCCCc1cn(CCCCCCCCn2cc(CCCOc3ccc(C(=O)NCCCCN4CCN(c5ccccc5OC)CC4)cc3OC)nn2)nn1`, the inhibition constant (Ki) in assay [2] came to 2.8 µM; in [3] it was 0.11 µM; in assay [4], 0.11 µM; in assay [5], 0.012 µM; in assay [6], 0.66 µM.
